We go through 1 compound from patent US5538997A, “2,4-diamino-3-hydroxycarboxylic acid derivatives” (Sandoz Ltd., priority 1993, dated 1996).

Structures are written as SMILES.

Data set [1] in a line: Assay of oral bioavailability in mice. Also on record: species or system Female Balb/c mice. The settings on record: mouse, in vivo. Here is the method: As is known from the literature, peptide based drugs characteristically show poor oral bioavailability. Since with HIV patients long term medication with proteinase inhibitors is anticipated, it is important that a useful drug be orally bioavailable. This is one of the main obstacles in the development of effective drugs in this peptidic structural class. […] This can be shown e.g. in the following test:
For peroral administration, a solution of the test substance (25 mg/ml) in a suitable solvent such as Cremophor RH40^R /Maisine^R /propylene glycol / ethanol (38/32/15/15) is prepared. Female Balb/c mice are fasted for 24 hours prior to the start, and throughout the experiment water is given ad libitum. At various times following drug administration, blood samples are obtained by sacrificing animals under anaesthesia by cutting the vena jugularis, followed by cervical dislocation. Samples are collected in heparinized tubes (typically 0.4-0.6 ml). For sample analysis solid phase extraction and HPLC are used. Drug concentration in the samples is calculated by least-squares linear regression analysis of the peak area ratio (inhibitor/internal standard) of spiked blood standards versus concentration. From the concentration versus time data, the "Area Under the Curve" (AUC) value is calculated by the trapezoidal rule.

Data set [2] deals with HIV-1 (HTLV IIIB)-induced cytopathic effect in MT4-cells. In words: Cellular assay: inhibition of HIV-1-induced cytopathic effect in MT4-cells (MTT). In kind it is cell-based. As to conditions: Human immunodeficiency virus 1, read-out: IC50 in the cellular assay (virus-inhibitory concentration). Here is the method:
Inhibition of the HIV-1 (HTLV IIIB)-induced cytopathic effect is measured in MT4-cells as described in the literature (R. Pauwels et al, J. Virol. Meth. 20 309-321 [1988]). Briefly, an HTLV-1 transformed T4 cell line, MT4, which has been shown previously to be highly permissive to HIV infection, serves as a target cell line. Inhibition of HIV-induced cytopathic effect is used as the end point. The viability of both HIV- and mock-infected cells is assessed spectrophotometrically via the in situ-reduction of 3-(4,5-dimethylthiazol-2-yl)-2,5-diphenyltetrazolium bromide (MTT). The comparison of the effects of various concentrations of the agent on HIV- versus mock-infected cells allows the determination of cytotoxic (TC50) and virus-inhibitory (IC50) concentrations.

The target in data set [3] is recombinant HIV-1-proteinase (Human immunodeficiency virus type 1 group M subtype B, UniProt P04585). Kind of data set: biochemical. Here is the method:
(§1) 1. Assay of peptide cleavage by HIV-proteinase
(§2) Inhibition of HIV-proteinase is measured as described in the literature: A. Richards et al., J. Biol. Chem. 265, 773-7736 (1990) and L. H. Philip et al., Biochem. Biophys. Res. Comun. 171,439-444 (1990). Briefly the peptide H-Lys-Ala-Arg-Val-Leu-Nph-Glu- Ala-Nle-NH2 (where Nph is p-nitrophenylalanine and Nle is norleucine) is used as substrate for recombinant HIV-1- and HIV-2-proteinase. Cleavage occurs between the Leu and Nph residues. The reaction is followed spectrophotometrically by the decrease in extinction at 300 nm which is observed upon cleavage.

Data set [4] addresses T1, recombinant HIV-2-proteinase (Human immunodeficiency virus type 2 subtype A, UniProt P04584).
T1 construct: recombinant HIV-1- and HIV-2-proteinase
In words: Assay of peptide cleavage by HIV-proteinase (HIV-2). In kind it is biochemical. The settings on record: substrate H-Lys-Ala-Arg-Val-Leu-Nph-Glu-Ala-Nle-NH2. Here is the method: as §1, §2

The next data set addresses T2, renin (Homo sapiens, UniProt P00797).
T2 sequence (P00797 67-406): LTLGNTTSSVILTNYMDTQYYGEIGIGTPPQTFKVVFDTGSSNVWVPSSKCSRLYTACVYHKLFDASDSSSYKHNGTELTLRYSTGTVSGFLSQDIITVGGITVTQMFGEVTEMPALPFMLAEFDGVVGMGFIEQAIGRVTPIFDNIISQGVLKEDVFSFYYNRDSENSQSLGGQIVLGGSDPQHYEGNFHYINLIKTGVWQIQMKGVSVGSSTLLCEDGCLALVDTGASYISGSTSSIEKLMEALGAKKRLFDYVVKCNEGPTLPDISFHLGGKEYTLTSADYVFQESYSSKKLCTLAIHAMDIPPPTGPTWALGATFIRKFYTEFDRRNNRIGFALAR
In words: Inhibition of renin (specificity). In kind it is biochemical.

For a further data set, the target named is cathepsin D (Homo sapiens, UniProt P07339). In words: Inhibition of cathepsin D (specificity). In kind it is biochemical.
Sequence of cathepsin D (P07339 65-412): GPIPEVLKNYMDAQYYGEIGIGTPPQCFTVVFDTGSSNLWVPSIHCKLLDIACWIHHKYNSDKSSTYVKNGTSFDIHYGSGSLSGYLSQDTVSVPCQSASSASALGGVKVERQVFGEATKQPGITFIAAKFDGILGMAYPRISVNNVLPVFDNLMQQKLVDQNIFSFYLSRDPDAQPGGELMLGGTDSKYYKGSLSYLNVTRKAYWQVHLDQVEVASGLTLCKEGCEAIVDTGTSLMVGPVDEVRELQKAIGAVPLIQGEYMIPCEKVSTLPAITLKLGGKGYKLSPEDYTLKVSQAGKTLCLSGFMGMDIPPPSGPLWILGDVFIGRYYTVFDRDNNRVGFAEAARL

T1 sequence (P04584 514-612 limits assumed): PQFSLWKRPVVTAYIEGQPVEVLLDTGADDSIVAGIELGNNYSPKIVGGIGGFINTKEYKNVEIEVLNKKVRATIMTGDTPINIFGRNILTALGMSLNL

On to `COc1ccc(CNC(C(=O)NC2c3ccccc3CC2O)C(O)C(Cc2ccccc2)NC(=O)C(NC(=O)OCc2ccccc2)C(C)(C)C)cc1` [Example 2, 4(S)-(Benzyloxycarbonyl-L-tert-leucinoy)amino-3(S)-hydroxy-2(R)-(4-methoxybenzylamino)-5-phenyl-pentanoic acid 1 (S)-amino-2(R)-hydroxyindan-amide], for which the oral uptake entry in data set [1] is given as “excellent oral uptake”. Moreover, in data set [2], the IC50 turned out to be 0.25 µM. For the same compound, the Ki was determined as 0.0095 µM in data set [3] and 0.05 µM in data set [4]. Also, the “inhibition of endogenous proteinase renin” value against renin is recorded as “does not inhibit”. Moreover, the “inhibition of endogenous proteinase cathepsin D” value at cathepsin D is listed as “does not inhibit”.
